Reference: paper PMC9856672, “SGC-CAMKK2-1: A Chemical Probe for CAMKK2” (Cells, 2023)

Experiments:
YSK4 = biological target: T1, YSK4 (Homo sapiens, UniProt Q56UN5); experiment: KINOMEscan 1 μM, YSK4; format: binding; conditions: 1000 nM; Entrez MAP3K19; read-out: Percent Control
T1 construct: purchased Eurofins DiscoverX KINOMEscan
Excerpt: (§1) Supplement cells-12-00287-s001.zip/File S2. KinomeScan data for the CAMKK2 probe and negative control.xlsx, sheet "SGC-CAMKK2-1" | column: Percent Control

FGFR2 = biological target: T2, FGFR2 (Homo sapiens, UniProt P21802); experiment: KINOMEscan 1 μM, FGFR2; format: binding; conditions: 1000 nM; Entrez FGFR2; read-out: Percent Control
T2 construct: purchased Eurofins DiscoverX KINOMEscan
T2 sequence (P21802 22-821): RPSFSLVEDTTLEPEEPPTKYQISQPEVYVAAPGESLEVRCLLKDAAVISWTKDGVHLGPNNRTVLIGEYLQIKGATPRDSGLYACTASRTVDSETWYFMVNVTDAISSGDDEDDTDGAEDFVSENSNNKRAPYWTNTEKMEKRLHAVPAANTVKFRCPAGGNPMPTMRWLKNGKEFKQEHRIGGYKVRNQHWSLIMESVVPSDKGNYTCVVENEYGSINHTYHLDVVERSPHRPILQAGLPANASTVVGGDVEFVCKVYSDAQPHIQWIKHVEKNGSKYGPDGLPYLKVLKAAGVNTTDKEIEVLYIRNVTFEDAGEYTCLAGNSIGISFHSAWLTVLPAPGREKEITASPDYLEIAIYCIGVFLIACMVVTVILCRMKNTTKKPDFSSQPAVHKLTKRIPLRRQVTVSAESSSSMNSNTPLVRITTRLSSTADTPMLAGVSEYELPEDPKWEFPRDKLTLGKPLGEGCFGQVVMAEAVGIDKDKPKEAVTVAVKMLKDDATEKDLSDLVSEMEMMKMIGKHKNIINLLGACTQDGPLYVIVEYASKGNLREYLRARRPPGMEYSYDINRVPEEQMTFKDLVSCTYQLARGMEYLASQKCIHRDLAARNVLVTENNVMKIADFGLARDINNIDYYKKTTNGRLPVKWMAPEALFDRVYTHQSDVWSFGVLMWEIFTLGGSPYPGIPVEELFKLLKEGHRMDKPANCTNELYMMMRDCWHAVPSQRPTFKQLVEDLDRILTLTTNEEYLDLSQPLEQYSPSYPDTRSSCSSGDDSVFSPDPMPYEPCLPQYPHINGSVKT
Excerpt: as §1

TAOK2 = biological target: T3, TAOK2 (Homo sapiens, UniProt Q9UL54); experiment: KINOMEscan 1 μM, TAOK2; format: binding; conditions: 1000 nM; Entrez TAOK2; read-out: Percent Control
T3 construct: purchased Eurofins DiscoverX KINOMEscan
Excerpt: as §1

ACVR2A = biological target: T4, ACVR2A (Homo sapiens, UniProt P27037); experiment: KINOMEscan 1 μM, ACVR2A; format: binding; conditions: 1000 nM; Entrez ACVR2A; read-out: Percent Control
T4 construct: purchased Eurofins DiscoverX KINOMEscan
Excerpt: as §1

STK16 = biological target: T5, STK16 (Homo sapiens, UniProt O75716); experiment: KINOMEscan 1 μM, STK16; format: binding; conditions: 1000 nM; Entrez STK16; read-out: Percent Control
T5 construct: purchased Eurofins DiscoverX KINOMEscan
Excerpt: as §1

DCAMKL2 = biological target: T6, DCAMKL2 (Homo sapiens, UniProt Q8N568); experiment: KINOMEscan 1 μM, DCAMKL2; format: binding; conditions: 1000 nM; Entrez DCLK2; read-out: Percent Control
T6 construct: purchased Eurofins DiscoverX KINOMEscan
T6 sequence (Q8N568 whole entry): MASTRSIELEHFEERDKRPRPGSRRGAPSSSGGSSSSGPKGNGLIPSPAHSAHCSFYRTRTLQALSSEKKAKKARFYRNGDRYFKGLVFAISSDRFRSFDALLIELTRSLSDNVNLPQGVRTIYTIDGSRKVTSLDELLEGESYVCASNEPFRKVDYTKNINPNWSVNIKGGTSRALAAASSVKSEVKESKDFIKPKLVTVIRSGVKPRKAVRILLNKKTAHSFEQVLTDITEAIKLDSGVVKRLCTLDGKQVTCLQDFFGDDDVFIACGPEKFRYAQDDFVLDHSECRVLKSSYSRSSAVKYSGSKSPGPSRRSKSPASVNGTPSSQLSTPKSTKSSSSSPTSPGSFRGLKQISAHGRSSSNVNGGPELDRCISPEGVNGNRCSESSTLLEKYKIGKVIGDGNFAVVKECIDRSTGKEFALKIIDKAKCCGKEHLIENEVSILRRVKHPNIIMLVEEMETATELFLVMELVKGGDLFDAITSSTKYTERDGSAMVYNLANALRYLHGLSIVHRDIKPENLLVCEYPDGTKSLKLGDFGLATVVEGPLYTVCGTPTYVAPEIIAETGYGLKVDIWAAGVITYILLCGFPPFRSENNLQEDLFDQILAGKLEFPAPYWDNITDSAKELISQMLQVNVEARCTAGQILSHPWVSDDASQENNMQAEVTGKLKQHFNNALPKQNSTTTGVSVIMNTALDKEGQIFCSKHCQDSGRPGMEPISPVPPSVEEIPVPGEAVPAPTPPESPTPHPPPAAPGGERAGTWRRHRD
Excerpt: as §1

TBK1 = biological target: T7, TBK1 (Homo sapiens, UniProt Q9UHD2); experiment: KINOMEscan 1 μM, TBK1; format: binding; conditions: 1000 nM; Entrez TBK1; read-out: Percent Control
T7 construct: purchased Eurofins DiscoverX KINOMEscan
Excerpt: as §1

EPHA8 = biological target: T8, EPHA8 (Homo sapiens, UniProt P29322); experiment: KINOMEscan 1 μM, EPHA8; format: binding; conditions: 1000 nM; Entrez EPHA8; read-out: Percent Control
T8 construct: purchased Eurofins DiscoverX KINOMEscan
Excerpt: as §1

AAK1 [1] = biological target: T9, AAK1 (Homo sapiens, UniProt Q2M2I8); experiment: KINOMEscan 1 μM, AAK1; format: binding; conditions: 1000 nM; Entrez AAK1; read-out: Percent Control
T9 construct: purchased Eurofins DiscoverX KINOMEscan
T9 sequence (Q2M2I8 whole entry): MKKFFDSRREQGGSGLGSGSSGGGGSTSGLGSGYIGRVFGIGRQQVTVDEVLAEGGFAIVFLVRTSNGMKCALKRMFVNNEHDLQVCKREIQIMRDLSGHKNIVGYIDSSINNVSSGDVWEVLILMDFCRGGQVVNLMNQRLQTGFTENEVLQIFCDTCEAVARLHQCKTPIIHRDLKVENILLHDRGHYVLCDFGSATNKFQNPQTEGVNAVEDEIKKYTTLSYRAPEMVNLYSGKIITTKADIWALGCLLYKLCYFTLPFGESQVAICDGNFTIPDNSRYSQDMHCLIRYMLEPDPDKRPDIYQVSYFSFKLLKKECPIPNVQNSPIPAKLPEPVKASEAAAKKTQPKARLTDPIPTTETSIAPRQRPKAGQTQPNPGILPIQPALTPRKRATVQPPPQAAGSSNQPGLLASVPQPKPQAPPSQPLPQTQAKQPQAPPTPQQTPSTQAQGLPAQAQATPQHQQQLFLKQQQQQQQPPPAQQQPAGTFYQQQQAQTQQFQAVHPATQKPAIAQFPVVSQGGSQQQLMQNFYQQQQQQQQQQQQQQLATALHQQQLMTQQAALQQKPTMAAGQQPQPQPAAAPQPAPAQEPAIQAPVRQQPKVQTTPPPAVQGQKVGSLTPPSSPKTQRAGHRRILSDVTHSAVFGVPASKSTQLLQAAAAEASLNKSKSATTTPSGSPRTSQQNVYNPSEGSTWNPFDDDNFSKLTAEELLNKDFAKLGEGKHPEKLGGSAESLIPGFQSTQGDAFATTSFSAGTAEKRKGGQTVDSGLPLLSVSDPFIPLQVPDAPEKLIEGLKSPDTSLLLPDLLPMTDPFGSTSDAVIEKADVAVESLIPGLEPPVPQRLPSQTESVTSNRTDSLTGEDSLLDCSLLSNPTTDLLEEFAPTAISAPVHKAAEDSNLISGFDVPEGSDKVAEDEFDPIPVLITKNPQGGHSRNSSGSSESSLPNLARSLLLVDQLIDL
Excerpt: as §1

CDK2 = biological target: T10, CDK2 (Homo sapiens, UniProt P24941); experiment: KINOMEscan 1 μM, CDK2; format: binding; conditions: 1000 nM; Entrez CDK2; read-out: Percent Control
T10 construct: purchased Eurofins DiscoverX KINOMEscan
Excerpt: as §1

GRK1 [2] = biological target: T11, GRK1 (Homo sapiens, UniProt Q15835); experiment: KINOMEscan 1 μM, GRK1; format: binding; conditions: 1000 nM; Entrez GRK1; read-out: Percent Control
T11 construct: purchased Eurofins DiscoverX KINOMEscan
T11 sequence (Q15835 whole entry): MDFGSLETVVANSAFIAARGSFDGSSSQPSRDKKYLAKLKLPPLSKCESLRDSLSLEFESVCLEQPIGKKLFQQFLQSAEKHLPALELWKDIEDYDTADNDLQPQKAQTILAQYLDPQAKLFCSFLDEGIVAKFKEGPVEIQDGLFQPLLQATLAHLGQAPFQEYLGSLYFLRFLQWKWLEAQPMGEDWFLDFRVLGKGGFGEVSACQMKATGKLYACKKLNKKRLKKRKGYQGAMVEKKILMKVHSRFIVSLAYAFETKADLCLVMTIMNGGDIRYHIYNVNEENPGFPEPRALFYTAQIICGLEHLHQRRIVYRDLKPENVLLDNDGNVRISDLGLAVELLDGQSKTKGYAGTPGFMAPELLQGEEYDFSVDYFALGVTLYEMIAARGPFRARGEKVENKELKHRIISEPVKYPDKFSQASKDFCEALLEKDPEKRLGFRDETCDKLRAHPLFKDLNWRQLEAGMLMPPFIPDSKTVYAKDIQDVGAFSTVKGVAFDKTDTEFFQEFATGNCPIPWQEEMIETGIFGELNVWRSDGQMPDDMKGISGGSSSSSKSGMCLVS
Excerpt: as §1

JNK1 = biological target: T12, JNK1 (Homo sapiens, UniProt P45983); experiment: KINOMEscan 1 μM, JNK1; format: binding; conditions: 1000 nM; Entrez MAPK8; read-out: Percent Control
T12 construct: purchased Eurofins DiscoverX KINOMEscan
Excerpt: as §1

MARK1 = biological target: T13, MARK1 (Homo sapiens, UniProt Q9P0L2); experiment: KINOMEscan 1 μM, MARK1; format: binding; conditions: 1000 nM; Entrez MARK1; read-out: Percent Control
T13 construct: purchased Eurofins DiscoverX KINOMEscan
Excerpt: as §1

MKK7 = biological target: T14, MKK7 (Homo sapiens, UniProt O14733); experiment: KINOMEscan 1 μM, MKK7; format: binding; conditions: 1000 nM; Entrez MAP2K7; read-out: Percent Control
T14 construct: purchased Eurofins DiscoverX KINOMEscan
Excerpt: as §1

NEK3 = biological target: T15, NEK3 (Homo sapiens, UniProt P51956); experiment: KINOMEscan 1 μM, NEK3; format: binding; conditions: 1000 nM; Entrez NEK3; read-out: Percent Control
T15 construct: purchased Eurofins DiscoverX KINOMEscan
Excerpt: as §1

PRKCQ = biological target: T16, PRKCQ (Homo sapiens, UniProt Q04759); experiment: DiscoverX KINOMEscan binding assay at 1 μM, PRKCQ; conditions: Compound Concentration 1000 nM, read-out: Percent Control
T16 construct: purchased Eurofins DiscoverX KINOMEscan
Excerpt: as §1

GSK3B = biological target: T17, GSK3B (Homo sapiens, UniProt P49841); experiment: KINOMEscan at 1 μM, GSK3B; format: binding; conditions: 1000 nM, read-out: Percent Control
T17 construct: purchased Eurofins DiscoverX KINOMEscan
Excerpt: (§2) Supplement cells-12-00287-s001.zip/File S2. KinomeScan data for the CAMKK2 probe and negative control.xlsx, sheet "SGC-CAMKK2-1N" | column: Percent Control

AURKB = biological target: T18, AURKB (Homo sapiens, UniProt Q96GD4); experiment: KINOMEscan at 1 μM, AURKB; format: binding; conditions: 1000 nM, read-out: Percent Control
T18 construct: purchased Eurofins DiscoverX KINOMEscan
T18 sequence (Q96GD4 whole entry): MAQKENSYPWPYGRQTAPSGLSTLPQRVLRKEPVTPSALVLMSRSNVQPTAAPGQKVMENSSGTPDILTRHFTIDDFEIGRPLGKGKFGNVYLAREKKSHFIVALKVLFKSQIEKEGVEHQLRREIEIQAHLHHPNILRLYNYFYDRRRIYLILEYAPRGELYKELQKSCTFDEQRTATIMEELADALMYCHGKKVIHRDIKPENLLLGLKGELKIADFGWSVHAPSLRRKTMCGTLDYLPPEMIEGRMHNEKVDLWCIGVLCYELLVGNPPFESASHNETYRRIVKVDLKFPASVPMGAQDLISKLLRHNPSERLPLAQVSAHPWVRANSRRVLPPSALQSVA
Excerpt: as §2

HIPK2 = biological target: T19, HIPK2 (Homo sapiens, UniProt Q9H2X6); experiment: KINOMEscan at 1 μM, HIPK2; format: binding; conditions: 1000 nM, read-out: Percent Control
T19 construct: purchased Eurofins DiscoverX KINOMEscan
Excerpt: as §2

TRKC = biological target: T20, TRKC (Homo sapiens, UniProt Q16288); experiment: KINOMEscan at 1 μM, TRKC; format: binding; conditions: 1000 nM, read-out: Percent Control
T20 construct: purchased Eurofins DiscoverX KINOMEscan
Excerpt: as §2

IRAK3 = biological target: T21, IRAK3 (Homo sapiens, UniProt Q9Y616); experiment: KINOMEscan at 1 μM, IRAK3; format: binding; conditions: 1000 nM, read-out: Percent Control
T21 construct: purchased Eurofins DiscoverX KINOMEscan
Excerpt: as §2

ERBB4 = biological target: T22, ERBB4 (Homo sapiens, UniProt Q15303); experiment: KINOMEscan at 1 μM, ERBB4; format: binding; conditions: 1000 nM, read-out: Percent Control
T22 construct: purchased Eurofins DiscoverX KINOMEscan
Excerpt: as §2

WEE1 = biological target: T23, WEE1 (Homo sapiens, UniProt P30291); experiment: KINOMEscan at 1 μM, WEE1; format: binding; conditions: 1000 nM, read-out: Percent Control
T23 construct: purchased Eurofins DiscoverX KINOMEscan
Excerpt: as §2

AAK1 [3] = biological target: T9, AAK1; experiment: KINOMEscan at 1 μM, AAK1; format: binding; conditions: 1000 nM, read-out: Percent Control
Excerpt: as §2

FLT3(D835H) = biological target: T24, FLT3(D835H) (Homo sapiens, UniProt P36888, D835H); experiment: KINOMEscan at 1 μM, FLT3(D835H); format: binding; conditions: 1000 nM, read-out: Percent Control
T24 construct: purchased Eurofins DiscoverX KINOMEscan
Excerpt: as §2

MELK = biological target: T25, MELK (Homo sapiens, UniProt Q14680); experiment: KINOMEscan at 1 μM, MELK; format: binding; conditions: 1000 nM, read-out: Percent Control
T25 construct: purchased Eurofins DiscoverX KINOMEscan
Excerpt: as §2

HIPK4 = biological target: T26, HIPK4 (Homo sapiens, UniProt Q8NE63); experiment: KINOMEscan at 1 μM, HIPK4; format: binding; conditions: 1000 nM, read-out: Percent Control
T26 construct: purchased Eurofins DiscoverX KINOMEscan
T26 sequence (Q8NE63 whole entry): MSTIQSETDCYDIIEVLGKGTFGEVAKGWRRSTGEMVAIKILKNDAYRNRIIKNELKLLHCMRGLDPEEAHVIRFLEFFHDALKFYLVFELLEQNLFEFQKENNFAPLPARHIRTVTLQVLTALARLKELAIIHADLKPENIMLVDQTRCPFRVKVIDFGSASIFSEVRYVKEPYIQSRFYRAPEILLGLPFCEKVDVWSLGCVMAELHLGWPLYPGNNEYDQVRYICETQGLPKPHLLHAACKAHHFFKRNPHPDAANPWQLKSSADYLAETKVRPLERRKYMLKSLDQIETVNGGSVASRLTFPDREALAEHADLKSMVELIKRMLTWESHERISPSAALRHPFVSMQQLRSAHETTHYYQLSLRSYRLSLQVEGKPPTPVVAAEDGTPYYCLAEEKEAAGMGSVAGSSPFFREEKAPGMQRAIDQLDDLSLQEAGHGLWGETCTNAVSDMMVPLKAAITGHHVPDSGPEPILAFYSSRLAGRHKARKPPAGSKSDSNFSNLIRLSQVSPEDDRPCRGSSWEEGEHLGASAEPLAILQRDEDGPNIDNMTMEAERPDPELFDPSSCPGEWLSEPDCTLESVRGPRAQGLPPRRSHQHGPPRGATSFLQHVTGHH
Excerpt: as §2

VEGFR2 = biological target: T27, VEGFR2 (Homo sapiens, UniProt P35968); experiment: KINOMEscan at 1 μM, VEGFR2; format: binding; conditions: 1000 nM, read-out: Percent Control
T27 construct: purchased Eurofins DiscoverX KINOMEscan
Excerpt: as §2

GRK1 [4] = biological target: T11, GRK1; experiment: KINOMEscan at 1 μM, GRK1; format: binding; conditions: 1000 nM, read-out: Percent Control
Excerpt: as §2

NEK5 = biological target: T28, NEK5 (Homo sapiens, UniProt Q6P3R8); experiment: KINOMEscan at 1 μM, NEK5; format: binding; conditions: 1000 nM, read-out: Percent Control
T28 construct: purchased Eurofins DiscoverX KINOMEscan
Excerpt: as §2

GCN2(Kin.Dom.2,S808G) = biological target: T29, GCN2(Kin.Dom.2,S808G) (Homo sapiens, UniProt Q9P2K8, S808G); experiment: KINOMEscan binding assay at 1 μM, GCN2(Kin.Dom.2,S808G); conditions: Compound Concentration 1000 nM; read-out: Percent Control
T29 construct: GCN2(Kin.Dom.2,S808G); purchased Eurofins DiscoverX KINOMEscan
Excerpt: as §2

LTK = biological target: T30, LTK (Homo sapiens, UniProt P29376); experiment: KINOMEscan binding assay at 1 μM, LTK; conditions: Compound Concentration 1000 nM; read-out: Percent Control
T30 construct: purchased Eurofins DiscoverX KINOMEscan
T30 sequence (P29376 17-864): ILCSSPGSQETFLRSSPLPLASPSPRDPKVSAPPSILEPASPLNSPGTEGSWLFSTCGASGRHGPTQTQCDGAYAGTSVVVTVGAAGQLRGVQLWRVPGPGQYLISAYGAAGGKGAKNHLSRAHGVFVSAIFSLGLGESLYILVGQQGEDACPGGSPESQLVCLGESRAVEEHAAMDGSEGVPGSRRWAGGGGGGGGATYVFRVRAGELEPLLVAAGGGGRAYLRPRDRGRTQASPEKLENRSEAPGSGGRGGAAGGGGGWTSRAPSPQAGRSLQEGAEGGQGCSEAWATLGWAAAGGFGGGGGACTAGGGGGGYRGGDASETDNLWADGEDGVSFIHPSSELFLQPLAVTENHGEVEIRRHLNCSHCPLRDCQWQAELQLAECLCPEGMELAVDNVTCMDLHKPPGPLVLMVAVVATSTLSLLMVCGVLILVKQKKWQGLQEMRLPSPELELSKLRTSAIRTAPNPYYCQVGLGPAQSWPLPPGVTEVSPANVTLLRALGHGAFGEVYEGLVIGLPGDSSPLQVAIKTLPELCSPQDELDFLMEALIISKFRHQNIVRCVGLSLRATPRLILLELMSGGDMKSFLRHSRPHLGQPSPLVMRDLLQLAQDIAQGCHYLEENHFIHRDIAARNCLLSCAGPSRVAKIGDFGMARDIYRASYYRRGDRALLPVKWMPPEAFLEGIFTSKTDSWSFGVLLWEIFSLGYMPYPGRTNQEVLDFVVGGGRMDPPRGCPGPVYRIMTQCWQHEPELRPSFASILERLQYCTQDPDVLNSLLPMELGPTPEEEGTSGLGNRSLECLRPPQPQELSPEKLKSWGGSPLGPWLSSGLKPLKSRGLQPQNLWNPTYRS
Excerpt: as §2

PKN1 = biological target: T31, PKN1 (Homo sapiens, UniProt Q16512); experiment: KINOMEscan binding assay at 1 μM, PKN1; conditions: Compound Concentration 1000 nM; read-out: Percent Control
T31 construct: purchased Eurofins DiscoverX KINOMEscan
Excerpt: as §2

RET = biological target: T32, RET (Homo sapiens, UniProt P07949); experiment: KINOMEscan binding assay at 1 μM, RET; conditions: Compound Concentration 1000 nM; read-out: Percent Control
T32 construct: purchased Eurofins DiscoverX KINOMEscan
Excerpt: as §2

Structure (SMILES): Cc1cccc(-c2cnc3occ(-c4ccc(C(=O)O)c(C5CCCC5)c4)c3c2)c1 [SGC-CAMKK2-1 (YL-36)]
- remaining binding at 1 µM (YSK4): 85%
- remaining binding at 1 µM (FGFR2): 88%
- remaining binding at 1 µM (TAOK2): 90%
- remaining binding at 1 µM (ACVR2A): 92%
- remaining binding at 1 µM (STK16): 93%
- remaining binding at 1 µM (DCAMKL2): 94%
- remaining binding at 1 µM (TBK1): 94%
- remaining binding at 1 µM (EPHA8): 95%
- remaining binding at 1 µM (AAK1 [1]): 98%
- remaining binding at 1 µM (CDK2): 100%
- remaining binding at 1 µM (GRK1 [2]): 100%
- remaining binding at 1 µM (JNK1): 100%
- remaining binding at 1 µM (MARK1): 100%
- remaining binding at 1 µM (MKK7): 100%
- remaining binding at 1 µM (NEK3): 100%
- remaining binding at 1 µM (PRKCQ): 100%

Structure (SMILES): O=C(O)c1ccc(-c2coc3ncc(-c4ccccc4)cc23)cc1Cl [SGC-CAMKK2-1N (UNC-YL-83)]
- remaining binding at 1 µM (GSK3B): 47%
- remaining binding at 1 µM (AURKB): 62%
- remaining binding at 1 µM (HIPK2): 77%
- remaining binding at 1 µM (TRKC): 78%
- remaining binding at 1 µM (IRAK3): 82%
- remaining binding at 1 µM (ERBB4): 83%
- remaining binding at 1 µM (WEE1): 84%
- remaining binding at 1 µM (AAK1 [3]): 87%
- remaining binding at 1 µM (FLT3(D835H)): 88%
- remaining binding at 1 µM (MELK): 88%
- remaining binding at 1 µM (HIPK4): 89%
- remaining binding at 1 µM (VEGFR2): 90%
- remaining binding at 1 µM (GRK1 [4]): 92%
- remaining binding at 1 µM (NEK5): 93%
- remaining binding at 1 µM (GCN2(Kin.Dom.2,S808G)): 100%
- remaining binding at 1 µM (LTK): 100%
- remaining binding at 1 µM (PKN1): 100%
- remaining binding at 1 µM (RET): 100%
